The assay concerns the target T1, purified human HDAC6 (Homo sapiens, UniProt Q9UBN7).
T1 construct: purchased BPS Bioscience 5006
T1 sequence (Q9UBN7 1-1215): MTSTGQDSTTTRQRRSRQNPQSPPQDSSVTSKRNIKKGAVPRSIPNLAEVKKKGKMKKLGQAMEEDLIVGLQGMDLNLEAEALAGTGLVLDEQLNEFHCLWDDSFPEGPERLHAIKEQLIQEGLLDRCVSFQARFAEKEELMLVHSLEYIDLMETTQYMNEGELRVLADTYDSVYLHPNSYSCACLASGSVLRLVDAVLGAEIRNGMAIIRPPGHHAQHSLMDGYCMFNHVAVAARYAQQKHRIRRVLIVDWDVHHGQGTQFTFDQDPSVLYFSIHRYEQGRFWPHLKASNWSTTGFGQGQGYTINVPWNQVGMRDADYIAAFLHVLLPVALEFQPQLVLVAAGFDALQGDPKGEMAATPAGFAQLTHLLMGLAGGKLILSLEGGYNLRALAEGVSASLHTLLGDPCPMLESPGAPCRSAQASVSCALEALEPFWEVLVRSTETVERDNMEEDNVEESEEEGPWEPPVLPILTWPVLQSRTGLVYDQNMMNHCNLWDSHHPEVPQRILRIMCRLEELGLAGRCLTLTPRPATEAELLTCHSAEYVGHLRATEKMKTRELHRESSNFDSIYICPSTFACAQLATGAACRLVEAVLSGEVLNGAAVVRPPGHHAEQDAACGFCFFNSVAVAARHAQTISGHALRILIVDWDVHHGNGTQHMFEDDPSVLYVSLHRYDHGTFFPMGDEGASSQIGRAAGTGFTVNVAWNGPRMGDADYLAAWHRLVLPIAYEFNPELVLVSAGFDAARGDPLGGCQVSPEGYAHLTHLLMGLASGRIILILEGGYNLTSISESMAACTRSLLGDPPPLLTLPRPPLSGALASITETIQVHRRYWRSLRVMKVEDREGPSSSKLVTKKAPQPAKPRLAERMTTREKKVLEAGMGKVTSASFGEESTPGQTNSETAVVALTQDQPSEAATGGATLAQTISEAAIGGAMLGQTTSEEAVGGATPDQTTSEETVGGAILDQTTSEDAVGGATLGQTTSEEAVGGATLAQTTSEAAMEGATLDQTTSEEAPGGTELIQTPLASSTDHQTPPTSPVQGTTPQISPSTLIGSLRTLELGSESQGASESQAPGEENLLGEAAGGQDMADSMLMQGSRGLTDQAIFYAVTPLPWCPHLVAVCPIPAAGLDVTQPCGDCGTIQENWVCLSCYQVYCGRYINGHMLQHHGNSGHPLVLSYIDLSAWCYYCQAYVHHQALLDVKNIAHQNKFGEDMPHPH
The assay can be described thus: HDAC6 Enzyme Assay. It counts as biochemical. The settings on record: HDAC6 inhibition at a compound concentration of 0.412 μM; read-out: Percent Inhibition at 0.412 μM. The procedure: To measure the inhibition of HDAC6 activity, purified human HDAC6 (BPS Bioscience; Cat. No. 5006) is incubated with substrate Ac-Arg-Gly-Lys(Ac)-AMC peptide (Bachem Biosciences; Cat. No. I-1925) for 1 hour at 30° C. in the presence of test compounds or vehicle DMSO control. The reaction is stopped with the HDAC inhibitor trichostatin A (Sigma; Cat. No. T8552) and the amount of Arg-Gly-Lys-AMC generated is quantitated by digestion with trypsin (Sigma; Cat. No. T1426) and subsequent measurement of the amount of AMC released using a fluorescent plate reader (Pherastar; BMG Technologies) set at Ex 340 nm and Em 460 nm. Concentration response curves are generated by calculating the fluorescence increase in test compound-treated samples relative to DMSO-treated controls, and enzyme inhibition (IC50) values are determined from those curves.

`O=C(NO)C1CCc2ccc(-c3cccnc3)cc2C1` (centres unmarked) [Compound I-60, N-hydroxy-7-pyridin-3-yl-1,2,3,4-tetrahydronaphthalene-2-carboxamide]: the inhibition (commonly the share of the control response that was lost under treatment) at 0.412 µM came out at 75%. With `O=C(NO)C1CCc2ccc(-c3cc4ccccc4s3)cc2C1` (centres unmarked) [Compound I-61, 7-(1-benzothien-2-yl)-N-hydroxy-1,2,3,4-tetrahydronaphthalene-2-carboxamide], the inhibition at 0.412 µM turned out to be 73%. Next, `CC(C)(C)OC(=O)Nc1cccc(-c2ccc3c(c2)CC(C(=O)NO)CC3)c1` (centres unmarked) [Compound I-62, tert-butyl (3-{7-[(hydroxyamino)carbonyl]-5,6,7,8-tetrahydronaphthalen-2-yl}phenyl)carbamate]: 82%. Next, `CC(C)(C)C(=O)Nc1cccc(-c2ccc3c(c2)CC(C(=O)NO)CC3)c1` (centres unmarked) [Compound I-63, 7-{3-[(2,2-dimethylpropanoyl)amino]phenyl}-N-hydroxy-1,2,3,4-tetrahydronaphthalene-2-carboxamide]: 90%; `O=C(NO)C1CCc2ccc(-c3cccc(NC(=O)C4CC4)c3)cc2C1` (centres unmarked) [Compound I-64, 7-{3-[(cyclopropylcarbonyl)amino]phenyl}-N-hydroxy-1,2,3,4-tetrahydronaphthalene-2-carboxamide]: 90%; `O=C(NO)C1CCc2cc(-c3ccc(Cl)cc3)ccc2C1` (centres unmarked) [Compound I-65, 6-(4-chlorophenyl)-N-hydroxy-1,2,3,4-tetrahydronaphthalene-2-carboxamide]: 68%. Take `O=C(NO)C1CCc2cc(-c3ccncc3)ccc2C1` (centres unmarked) [Compound I-66, N-hydroxy-6-pyridin-4-yl-1,2,3,4-tetrahydronaphthalene-2-carboxamide]: the inhibition at 0.412 µM was found to be 80%.

For `COc1cccc(-c2ccc3c(c2)CC(C(=O)NO)CC3)c1` (centres unmarked) [Compound I-67, N-hydroxy-7-(3-methoxyphenyl)-1,2,3,4-tetrahydronaphthalene-2-carboxamide], the inhibition at 0.412 µM was 81%. The same measure for `COc1ccccc1-c1ccc2c(c1)CC(C(=O)NO)CC2` (centres unmarked) [Compound I-68, N-hydroxy-7-(2-methoxyphenyl)-1,2,3,4-tetrahydronaphthalene-2-carboxamide]: 76%; for `COc1ccc(-c2ccc3c(c2)CC(C(=O)NO)CC3)cc1` (centres unmarked) [Compound I-69, N-hydroxy-7-(4-methoxyphenyl)-1,2,3,4-tetrahydronaphthalene-2-carboxamide]: 79%; for `O=C(NO)C1CCc2ccc(-c3ccccc3Cl)cc2C1` (centres unmarked) [Compound I-70, 7-(2-chlorophenyl)-N-hydroxy-1,2,3,4-tetrahydronaphthalene-2-carboxamide]: 78%. The same measure for `O=C(NO)C1CCc2ccc(-c3ccc(Cl)cc3)cc2C1` (centres unmarked) [Compound I-71, 7-(4-chlorophenyl)-N-hydroxy-1,2,3,4-tetrahydronaphthalene-2-carboxamide]: 74%; for `O=C(NO)C1CCc2ccc(-c3ccc4cc[nH]c4c3)cc2C1` (centres unmarked) [Compound I-72, N-hydroxy-7-(1H-indol-6-yl)-1,2,3,4-tetrahydronaphthalene-2-carboxamide]: 87%.

Consider `O=C(NO)C1CCc2ccc(Oc3ccc(NCc4ccc(Cl)cc4)cc3)cc2C1` (centres unmarked) [Compound I-73, 7-{4-[(4-chlorobenzyl)amino]phenoxy}-N-hydroxy-1,2,3,4-tetrahydronaphthalene-2-carboxamide], for which the inhibition at 0.412 µM was 64%.

Turning to `CC(=O)Nc1cccc(-c2ccc3c(c2)CCC(C(=O)NO)C3)c1` (centres unmarked) [Compound I-74, 6-[3-(acetylamino)phenyl]-N-hydroxy-1,2,3,4-tetrahydronaphthalene-2-carboxamide], the inhibition at 0.412 µM was 85%. Next, `O=C(NO)C1CCc2ccc(-c3ccc4[nH]ccc4c3)cc2C1` (centres unmarked) [Compound I-75, N-hydroxy-7-(1H-indol-5-yl)-1,2,3,4-tetrahydronaphthalene-2-carboxamide]: 77%; `COc1ccc2c(c1)CC(C)(C(=O)NO)CC2` (centres unmarked) [Compound I-76, N-hydroxy-7-methoxy-2-methyl-1,2,3,4-tetrahydronaphthalene-2-carboxamide]: 0%; `O=C(NO)C1CCc2cc(NC(=O)C3CC3)ccc2C1` (centres unmarked) [Compound I-77, 6-[(cyclopropylcarbonyl)amino]-N-hydroxy-1,2,3,4-tetrahydronaphthalene-2-carboxamide]: 68%. Next, `O=C(NO)C1CCc2cc(Nc3ccc(Cl)cc3)ccc2C1` (centres unmarked) [Compound I-78, 6-[(4-chlorophenyl)amino]-N-hydroxy-1,2,3,4-tetrahydronaphthalene-2-carboxamide]: 48%.

Regarding `COc1cccc(Nc2ccc3c(c2)CCC(C(=O)NO)C3)c1` (centres unmarked) [Compound I-79, N-hydroxy-6-[(3-methoxyphenyl)amino]-1,2,3,4-tetrahydronaphthalene-2-carboxamide], the inhibition at 0.412 µM was 43%. On to `COc1ccc(Nc2ccc3c(c2)CCC(C(=O)NO)C3)cc1` (centres unmarked) [Compound I-80, N-hydroxy-6-[(4-methoxyphenyl)amino]-1,2,3,4-tetrahydronaphthalene-2-carboxamide], for which the inhibition at 0.412 µM stood at 43%. The same measure for `O=C(NO)C1CCc2ccc(-c3ccc4[nH]cnc4c3)cc2C1` (centres unmarked) [Compound I-81, 7-(1H-benzimidazol-5-yl)-N-hydroxy-1,2,3,4-tetrahydronaphthalene-2-carboxamide]: 89%; for `O=C(NO)C1CCc2ccc(-c3c[nH]c4ccccc34)cc2C1` (centres unmarked) [Compound I-82, N-hydroxy-7-(1H-indol-3-yl)-1,2,3,4-tetrahydronaphthalene-2-carboxamide]: 83%.

For the compound `O=C(NO)C1CCc2cc(Nc3ccccc3Cl)ccc2C1` (centres unmarked) [Compound I-83, 6-[(2-chlorophenyl)amino]-N-hydroxy-1,2,3,4-tetrahydronaphthalene-2-carboxamide], the inhibition at 0.412 µM stood at 37%.

Turning to `COc1ccccc1Nc1ccc2c(c1)CCC(C(=O)NO)C2` (centres unmarked) [Compound I-84, N-hydroxy-6-[(2-methoxyphenyl)amino]-1,2,3,4-tetrahydronaphthalene-2-carboxamide], the inhibition at 0.412 µM was found to be 38%. The same measure for `CC1(C(=O)Nc2ccc3c(c2)CCC(C(=O)NO)C3)CCNCC1` (centres unmarked) [Compound I-85, N-{6-[(hydroxyamino)carbonyl]-5,6,7,8-tetrahydronaphthalen-2-yl}-4-methylpiperidine-4-carboxamide]: 74%; for `O=C(NO)C1CCc2ccc(-c3ccc4ccccc4c3)cc2C1` (centres unmarked) [Compound I-86, N-hydroxy-5,6,7,8-tetrahydro-2,2′-binaphthalene-7-carboxamide]: 73%. Next, `O=C(NO)C1CCc2ccc(-c3cnc4[nH]ccc4c3)cc2C1` (centres unmarked) [Compound I-87, N-hydroxy-7-(1H-pyrrolo[2,3-b]pyridin-5-yl)-1,2,3,4-tetrahydronaphthalene-2-carboxamide]: 85%. The same measure for `Cc1nnc(-c2cccc(-c3ccc4c(c3)CC(C(=O)NO)CC4)c2)o1` (centres unmarked) [Compound I-88, N-hydroxy-7-[3-(5-methyl-1,3,4-oxadiazol-2-yl)phenyl]-1,2,3,4-tetrahydronaphthalene-2-carboxamide]: 79%.

(Values after US20140243334A1, “SUBSTITUTED HYDOXAMIC ACIDS AND USES THEREOF” (Millennium Pharmaceuticals, Inc., priority 2010, published 2014).)
